Assay results: US20150072968A1, “Treating Infections with Ceftolozane/Tazobactam in Subjects Having Impaired Renal Function” (Calixa Therapeutics, Inc., priority 2013, published 2015)
Like-named read-outs stand apart in the source and are kept apart here.

Experiments:
[1] = cited from earlier work
[2] = cited from earlier work; remark: listed apart in the source
[3] = Pharmacokinetics of ceftolozane/tazobactam in healthy volunteers; assay type: in vivo, human; details: single 1.5 g intravenous dose of CXA-201, healthy male adults
[4] = Phase 1 single dose PK of 750 mg ceftolozane/tazobactam in severe renal impairment and ESRD on hemodialysis (Example 8); assay type: in vivo, human; details: for AUC(0-t) / Cmax / half-life / Tmax / AUC(0-inf) / clearance / Vd: both sexes, human, plasma; for Cmax: read-out: Cmax, Mean (CV %); for half-life: read-out: t1/2, Mean (CV %) (converted); for Tmax: read-out: tmax, Median (minimum, maximum); for AUC(0-inf): read-out: AUC∞, Mean (CV %); for clearance: read-out: CL, Mean (CV %) (converted); for Vd: read-out: Vss, Mean (CV %)
Experimental: This was a Phase 1, multicenter, prospective, open-label study of 750 mg ceftolozane/tazobactam (as CXA-201) administered IV in male and female adult subjects with severe renal impairment (estimated CLCR<30 mL/min) and subjects with end-stage renal disease (ESRD) on hemodialysis (HD). The primary objective of the study was to determine the PK profile of ceftolozane/tazobactam in subjects with severe renal impairment and subjects with ESRD on HD and to determine the effect of HD on the clearance of ceftolozane/tazobactam.
Subjects with severe renal impairment received a single IV 1-hour infusion of 750 mg ceftolozane/tazobactam on Day 1. […] Subjects in this cohort received an IV dose of 750 mg ceftolozane/tazobactam as a 1 hour infusion immediately after their first HD session on Day 1 (postdialysis, approximately 72 hours prior to the next HD session) and a second dose of ceftolozane/tazobactam approximately 2 hours before their second HD session on Day 4 of the study. Infusion of ceftolozane/tazobactam was completed approximately 1 hour before the start of HD.
Subjects in both cohorts had urine (if not anuric) and plasma samples collected for determination of levels of ceftolozane, tazobactam and the M1 metabolite of tazobactam; subjects in the ESRD on HD cohort also had dialysate fluid samples collected for PK assessment. Plasma, urine, and dialysate levels of ceftolozane, tazobactam, and its metabolite M1 collected over a prespecified interval were determined by LC/MS/MS assay.
All subjects underwent hemodialysis for 3 to 4 hours using a high-flux membrane (either 1.4, 1.8, or 1.9 m^2) on Days 1, 4, and 6 as scheduled. Average blood flow rate was 264 to 600 mL/min and average dialysis flow rate was either 600 or 800 mL/min for all subjects with ESRD.

[5] = Population pharmacokinetic analysis of 10 clinical studies (Example 7); assay type: in vivo, human
Description: Base model development. […] Intrinsic covariates analyzed included body weight, age, gender, ethnicity, and baseline calculated CrCL). The CrCL was estimated using the Cockcroft-Gault formula: […] […] Final population PK model: evaluation and performance. […] Smaller shrinkage ≦0.2 indicates good individual estimates.

clinical = details: human, in vivo
Description: CXA-201 plasma concentrations from 6 subjects with ESRD following a single dose without HD and a second dose with HD were used to develop a pPK model (Phoenix NLME, Pharsight).

[6] = Phase I PK studies in subjects with varying degrees of renal function (Example 11); assay type: in vivo, human
Description: Male and female subjects, aged 18 to 79 years, with varying degrees of renal function were enrolled in two, prospective, open-label, phase I studies of intravenous ceftolozane/tazobactam. A total of 36 subjects were enrolled into cohorts based on degree of renal function: normal (n=11), mild impairment (n=6), moderate impairment (n=7), severe impairment (n=6), and ESRD on HD (n=6). To ensure subjects with ESRD were receiving effective HD, a target adequacy of HD calculated from the pre- and post-blood urea nitrogen ratios (Kt/V) of at least 1.2 for a minimum of 3 months prior to enrollment was required. Renal impairment groups were classified according to the 2010 U.S.

[7] = intravenous, 750 mg, ESRD on HD, second infusion Day 4, start of infusion to end of dialysis
[8] = iv, 750 mg, ESRD on HD, Day 1 IV infusion of 750 mg (non-hemodialysis phase)
[9] = iv, 750 mg, ESRD on HD, second IV infusion of 750 mg on Day 4 (during HD)
[10] = iv, 750 mg, severe renal impairment, single IV 1-hour infusion of 750 mg ceftolozane/tazobactam
[11] = moderate renal impairment, single 1,000 mg/500 mg dose
[12] = severe renal impairment, single 500 mg/250 mg dose

SMILES: C[C@]1(Cn2ccnn2)[C@H](C(=O)O)N2C(=O)C[C@H]2S1(=O)=O [Tazobactam]
- terminal elimination half-life (t½β) ([1]; healthy volunteers): ~1 h
- Terminal elimination half-lives (t1/2) ([1]; patients with normal renal function): ~1 h
- excreted in the urine as the unchanged parent drug ([1]; remainder as inactive M1 metabolite): 80%
- protein binding [2]: ~30%
- excreted in the urine as unchanged parent drug [3]: More than 80%
- AUC(0-t) ([4]; intravenous, 750 mg, ESRD on HD, second infusion Day 4, approximately 6 hours from start of infusion to end of dialysis, read-out: AUClast, Mean (CV %)): 28800 ng·h/mL
- Cmax [4, 7]: 15700 ng/mL
- half-life [4, 7]: 0.98 h
- Tmax [4, 7]: 1 h
- AUC(0-t) ([4]; intravenous, 750 mg, subjects with ESRD, read-out: Exposure (AUC48h) After HD (Day 1), Median (Range)): 107000 ng·h/mL
- AUC(0-t) ([4]; intravenous, 750 mg, subjects with ESRD, read-out: Exposure (AUC48h) During HD (Day 3), Median (Range)): 37100 ng·h/mL
- AUC(0-inf) [4, 8]: 105000 ng·h/mL
- clearance [4, 8]: 50 mL/min
- Cmax [4, 8]: 21200 ng/mL
- Vd [4, 8]: 17 L
- half-life [4, 8]: 5.23 h
- AUC(0-t) ([4]; iv, 750 mg, ESRD on HD, Day 1 IV infusion of 750 mg (non-hemodialysis phase), through 48 hours, read-out: AUClast, Mean (CV %)): 103000 ng·h/mL
- Cmax [4, 9]: 15600 ng/mL
- half-life [4, 9]: 5.2 h
- AUC(0-t) ([4]; iv, 750 mg, ESRD on HD, second IV infusion of 750 mg on Day 4 (during HD), through 44 hours, read-out: AUClast, Mean (CV %)): 38400 ng·h/mL
- AUC(0-t) ([4]; iv, 750 mg, severe renal impairment, single IV 1-hour infusion of 750 mg ceftolozane/tazobactam, through 48 hours, read-out: AUClast, Mean (CV %)): 50300 ng·h/mL
- Cmax [4, 10]: 15200 ng/mL
- AUC(0-inf) [4, 10]: 52400 ng·h/mL
- clearance [4, 10]: 85 mL/min
- Vd [4, 10]: 16.5 L
- half-life [4, 10]: 2.6 h
- Tmax ([4]; ESRD on HD, second IV infusion of 750 mg on Day 4 (during HD)): 1 h
- removed by dialysis ([4]; subjects with ESRD on HD): ~56%
- AUC48h Ratio (Day 3:1), Median (Range) ([4]; subjects with ESRD, during HD vs after HD): 0.44 (0.26 − 0.53)
- Percent Removed, Median (Range) ([4]; subjects with ESRD, hemodialysis): 56 (47 − 74) Percent
- between-subject variability (BSV) of CL ([5]; final population PK model): 50.2%
- between-subject variability (BSV) of Vc ([5]; final population PK model): 52.5%
- inter-compartment clearance (CL2) ([5]; final population PK model): 3.13 L/h
- volume of distribution in the peripheral compartment (Vp) ([5]; final population PK model): 4.29 L
- clearance ([5]; human, plasma, intravenous, final population PK model, read-out: CL, population estimate (converted)): 300 mL/min
- Vc, population estimate ([5]; subjects without infection): 14.2 L
- Vd (clinical): 11 L
- clearance (clinical): 51.2 mL/min
- increase of CL by HD (clinical): 6.6 fold
- increase of Vc by HD (clinical): 1.5 fold
- extraction ratio ([6]; 1 h after the start of HD): 48%
- extraction ratio ([6]; 2 h after the start of HD): 54%
- median Cmax in plasma higher compared with normal renal function, dose normalized ([6]; ESRD during non-HD): 2.4 fold
- average extraction ratio during HD ([6]; ESRD on HD): 53%
- median RDHD (percent reduction in plasma concentration during HD) ([6]; ESRD on HD): 95%
- reduction in overall exposure based on the AUC0-∞ on and off HD ([6]; ESRD on HD): ~56%
- plasma concentration rebound peak following HD, of the original Cmax ([6]; ESRD, period following HD): ~6%
- extraction ratio ([6]; at end of HD): 55%
- clearance ([6]; both sexes, human, dialysate and plasma, intravenous, ESRD on HD, read-out: median dialysis clearance (CLD) (converted)): 73.2 mL/min
- half-life ([6]; both sexes, human, plasma, intravenous, ESRD on HD, read-out: t1/2 during the HD period (converted)): 0.91 h
- increase of median AUC0-∞ compared with normal renal function [6, 11]: 2.2 fold
- increase of median Cmax compared with normal renal function [6, 11]: 1.6 fold
- increase of median AUC0-∞ compared with dose-normalized exposure in normal renal function [6, 12]: 3.8 fold
- increase of median Cmax compared with dose-normalized exposure in normal renal function [6, 12]: 1.9 fold
